Data reported in the NIST ThermoML archive (doi:10.1016/j.jct.2012.03.011).
Numbers after ± are expanded uncertainties.

Tests used:
[1] = 298.15 K; 101.33 kPa; Liquid; Vibrating tube method
[2] = refractive index (Na D-line) (dimensionless); details: 298.15 K; 101.33 kPa; Liquid; Standard Abbe refractometry
[3] = xn = mol fraction of the nth substance listed; details: 298.15 K, 101 kPa, Liquid, Vibrating tube method
[4] = excess molar enthalpy (molar enthalpy of mixing); xn = mol fraction of the nth substance listed; details: 298.15 K, 101 kPa, Liquid, Calvet calorimetry

`CCCCC(=O)OCC` [ethyl pentanoate] showed a mass density [1] of 869.28 ± 0.23 kg/m3 and a refractive index [2] of 1.3981 ± 0.0005.

`CCCCCCCCCCCC` [dodecane] showed a mass density [1] of 745.1 ± 0.58 kg/m3 and a refractive index [2] of 1.4192 ± 0.0006.

In the case of `CCCCC(=O)OCC` [ethyl pentanoate] + CCCCCCCCCCCC, the mass density ([3]; x2 = 0.0505) is reported as 858.92 ± 0.26 kg/m3, the mass density ([3]; x2 = 0.1024) is reported as 849.09 ± 0.28 kg/m3 and the mass density ([3]; x2 = 0.1522) is reported as 840.25 ± 0.29 kg/m3. The mass density ([3]; x2 = 0.1998) was 832.32 ± 0.3 kg/m3, the mass density ([3]; x2 = 0.2496) was 824.53 ± 0.32 kg/m3 and the mass density ([3]; x2 = 0.3013) was 816.7 ± 0.33 kg/m3. For the same compound, the mass density ([3]; x2 = 0.4039) was 802.81 ± 0.37 kg/m3, the mass density ([3]; x2 = 0.502) was 790.76 ± 0.4 kg/m3 and the mass density ([3]; x2 = 0.6026) was 779.67 ± 0.43 kg/m3. For the same compound, the mass density ([3]; x2 = 0.6547) was 774.3 ± 0.45 kg/m3, the mass density ([3]; x2 = 0.6992) was 769.94 ± 0.47 kg/m3 and the mass density ([3]; x2 = 0.7485) was 765.35 ± 0.48 kg/m3. For the same compound, the mass density ([3]; x2 = 0.7982) was 760.93 ± 0.5 kg/m3, the mass density ([3]; x2 = 0.847) was 756.88 ± 0.52 kg/m3 and the mass density ([3]; x2 = 0.8918) was 753.23 ± 0.54 kg/m3. It also gave a mass density ([3]; x2 = 0.9497) of 748.76 ± 0.56 kg/m3, an excess molar enthalpy ([4]; x2 = 0.043) of 0.0459 ± 0.0012 kcal/mol and an excess molar enthalpy ([4]; x2 = 0.0928) of 0.0887 ± 0.00191 kcal/mol. For the same compound, the excess molar enthalpy ([4]; x2 = 0.1433) was 0.129 ± 0.00287 kcal/mol, the excess molar enthalpy ([4]; x2 = 0.1957) was 0.163 ± 0.00359 kcal/mol and the excess molar enthalpy ([4]; x2 = 0.2488) was 0.192 ± 0.00406 kcal/mol. The excess molar enthalpy ([4]; x2 = 0.3005) was 0.214 ± 0.00454 kcal/mol, the excess molar enthalpy ([4]; x2 = 0.3181) was 0.219 ± 0.00478 kcal/mol and the excess molar enthalpy ([4]; x2 = 0.3511) was 0.23 ± 0.00502 kcal/mol. For the same compound, the excess molar enthalpy ([4]; x2 = 0.3548) was 0.232 ± 0.00502 kcal/mol, the excess molar enthalpy ([4]; x2 = 0.3978) was 0.242 ± 0.00526 kcal/mol and the excess molar enthalpy ([4]; x2 = 0.446) was 0.25 ± 0.00526 kcal/mol. For the same compound, the excess molar enthalpy ([4]; x2 = 0.5012) was 0.252 ± 0.0055 kcal/mol, the excess molar enthalpy ([4]; x2 = 0.5648) was 0.247 ± 0.00526 kcal/mol and the excess molar enthalpy ([4]; x2 = 0.6392) was 0.23 ± 0.00502 kcal/mol. For the same compound, the excess molar enthalpy ([4]; x2 = 0.7228) was 0.197 ± 0.0043 kcal/mol, the excess molar enthalpy ([4]; x2 = 0.8127) was 0.148 ± 0.00311 kcal/mol and the excess molar enthalpy ([4]; x2 = 0.9036) was 0.0896 ± 0.00191 kcal/mol.

`CCCCC(=O)OCC` [ethyl pentanoate] + CCOC(C)=O gave a mass density ([3]; x1 = 0.0482) of 892.36 ± 0.23 kg/m3, a mass density ([3]; x1 = 0.0954) of 890.53 ± 0.23 kg/m3 and a mass density ([3]; x1 = 0.148) of 888.63 ± 0.23 kg/m3. For the same compound, the mass density ([3]; x1 = 0.1941) was 887.05 ± 0.23 kg/m3, the mass density ([3]; x1 = 0.3047) was 883.64 ± 0.24 kg/m3 and the mass density ([3]; x1 = 0.4) was 881.02 ± 0.24 kg/m3. For the same compound, the mass density ([3]; x1 = 0.4921) was 878.73 ± 0.24 kg/m3, the mass density ([3]; x1 = 0.5717) was 876.92 ± 0.24 kg/m3 and the mass density ([3]; x1 = 0.6556) was 875.16 ± 0.24 kg/m3. It also gave a mass density ([3]; x1 = 0.6946) of 874.41 ± 0.24 kg/m3, a mass density ([3]; x1 = 0.7526) of 873.29 ± 0.24 kg/m3 and a mass density ([3]; x1 = 0.7924) of 872.6 ± 0.2 kg/m3. The mass density ([3]; x1 = 0.8362) was 871.84 ± 0.24 kg/m3, the mass density ([3]; x1 = 0.8651) was 871.36 ± 0.24 kg/m3 and the mass density ([3]; x1 = 0.9263) was 870.36 ± 0.24 kg/m3. For the same compound, the mass density ([3]; x1 = 0.9377) was 870.21 ± 0.24 kg/m3, the excess molar enthalpy ([4]; x1 = 0.0627) was 0.0117 ± 0.000478 kcal/mol and the excess molar enthalpy ([4]; x1 = 0.1347) was 0.0213 ± 0.000478 kcal/mol. It also gave an excess molar enthalpy ([4]; x1 = 0.2071) of 0.0282 ± 0.000717 kcal/mol, an excess molar enthalpy ([4]; x1 = 0.2799) of 0.0332 ± 0.000717 kcal/mol and an excess molar enthalpy ([4]; x1 = 0.3493) of 0.0351 ± 0.000717 kcal/mol. It also gave an excess molar enthalpy ([4]; x1 = 0.4144) of 0.0363 ± 0.000956 kcal/mol, an excess molar enthalpy ([4]; x1 = 0.4736) of 0.0375 ± 0.000956 kcal/mol and an excess molar enthalpy ([4]; x1 = 0.5198) of 0.0368 ± 0.000956 kcal/mol. For the same compound, the excess molar enthalpy ([4]; x1 = 0.561) was 0.0361 ± 0.000956 kcal/mol, the excess molar enthalpy ([4]; x1 = 0.6071) was 0.0347 ± 0.000717 kcal/mol and the excess molar enthalpy ([4]; x1 = 0.6645) was 0.0318 ± 0.000717 kcal/mol. It also gave an excess molar enthalpy ([4]; x1 = 0.7376) of 0.0272 ± 0.000717 kcal/mol, an excess molar enthalpy ([4]; x1 = 0.8193) of 0.021 ± 0.000478 kcal/mol and an excess molar enthalpy ([4]; x1 = 0.8904) of 0.0139 ± 0.000478 kcal/mol. It also gave an excess molar enthalpy ([4]; x1 = 0.9529) of 0.00717 ± 0.000239 kcal/mol.

Compound `CCCCCCCCCCCC` [dodecane] + CCOC(C)=O has a mass density ([3]; x1 = 0.097) of 860.06 ± 0.29 kg/m3, a mass density ([3]; x1 = 0.146) of 846.23 ± 0.3 kg/m3 and a mass density ([3]; x1 = 0.1976) of 833.46 ± 0.31 kg/m3. It also gave a mass density ([3]; x1 = 0.2508) of 821.88 ± 0.32 kg/m3, a mass density ([3]; x1 = 0.2979) of 812.79 ± 0.33 kg/m3 and a mass density ([3]; x1 = 0.3903) of 797.68 ± 0.36 kg/m3. For the same compound, the mass density ([3]; x1 = 0.4943) was 783.92 ± 0.39 kg/m3, the mass density ([3]; x1 = 0.6) was 772.56 ± 0.43 kg/m3 and the mass density ([3]; x1 = 0.6909) was 764.45 ± 0.46 kg/m3. The mass density ([3]; x1 = 0.7392) was 760.65 ± 0.48 kg/m3, the mass density ([3]; x1 = 0.7931) was 756.85 ± 0.5 kg/m3 and the mass density ([3]; x1 = 0.8213) was 754.91 ± 0.51 kg/m3. It also gave a mass density ([3]; x1 = 0.8798) of 751.38 ± 0.53 kg/m3, a mass density ([3]; x1 = 0.9374) of 748.08 ± 0.55 kg/m3 and an excess molar enthalpy ([4]; x1 = 0.0232) of 0.0564 ± 0.00143 kcal/mol. It also gave an excess molar enthalpy ([4]; x1 = 0.0541) of 0.12 ± 0.00263 kcal/mol, an excess molar enthalpy ([4]; x1 = 0.0898) of 0.184 ± 0.00406 kcal/mol and an excess molar enthalpy ([4]; x1 = 0.1316) of 0.246 ± 0.00526 kcal/mol. For the same compound, the excess molar enthalpy ([4]; x1 = 0.18) was 0.306 ± 0.00645 kcal/mol, the excess molar enthalpy ([4]; x1 = 0.2292) was 0.353 ± 0.00765 kcal/mol and the excess molar enthalpy ([4]; x1 = 0.279) was 0.389 ± 0.00837 kcal/mol. For the same compound, the excess molar enthalpy ([4]; x1 = 0.3296) was 0.416 ± 0.00884 kcal/mol, the excess molar enthalpy ([4]; x1 = 0.3789) was 0.434 ± 0.00932 kcal/mol and the excess molar enthalpy ([4]; x1 = 0.4062) was 0.442 ± 0.00932 kcal/mol. For the same compound, the excess molar enthalpy ([4]; x1 = 0.4261) was 0.444 ± 0.00956 kcal/mol, the excess molar enthalpy ([4]; x1 = 0.4718) was 0.448 ± 0.00956 kcal/mol and the excess molar enthalpy ([4]; x1 = 0.4736) was 0.446 ± 0.00956 kcal/mol. For the same compound, the excess molar enthalpy ([4]; x1 = 0.5534) was 0.43 ± 0.00908 kcal/mol, the excess molar enthalpy ([4]; x1 = 0.647) was 0.385 ± 0.00813 kcal/mol and the excess molar enthalpy ([4]; x1 = 0.7424) was 0.313 ± 0.00669 kcal/mol. It also gave an excess molar enthalpy ([4]; x1 = 0.8396) of 0.214 ± 0.00454 kcal/mol and an excess molar enthalpy ([4]; x1 = 0.9339) of 0.101 ± 0.00215 kcal/mol.

For `CCOC(C)=O` [ethyl acetate], the mass density [1] was 894.34 ± 0.23 kg/m3 and the refractive index [2] was 1.37 ± 0.0005.
